Assay results reported in US5834014A, “Stimulation of hair follicles” (priority 1995, dated 1998).

How the values were obtained:
[1] = in vivo and in vitro, topical administration; cited from earlier work
[2] = transport of water-soluble material by association with nonionic vesicles

| Compound | effect of phospholipid liposomes on penetration into the skin [1] | transport by association with nonionic vesicles [2] |
| --- | --- | --- |
| C[C@]12CC[C@@H]3c4ccc(O)cc4CC[C@H]3[C@@H]1CC[C@@H]2O [estradiol] | do not improve penetration |  |
| carboxyfluoroscein |  | transported to a greater extent |
| TGF-α: water-soluble material tested for transport by association with nonionic vesicles |  | transported to a greater extent |
| C[C@]12CCC(=O)C=C1CC[C@@H]1[C@@H]2[C@@H](O)C[C@@]2(C)[C@H]1CC[C@]2(O)C(=O)CO [hydrocortisone] | do not improve penetration |  |
| CC(=O)[C@H]1CC[C@H]2[C@@H]3CCC4=CC(=O)CC[C@]4(C)[C@H]3CC[C@]12C [progesterone] | do not improve penetration |  |
